# From patent US20220304992A1, “METHODS OF REJUVENATING AGED TISSUE BY INHIBITING 15-HYDROXYPROSTAGLANDIN DEHYDROGENASE (15-PGDH)” (The Board of Trustees of the Leland Stanford Junior …, priority 2019, published 2022)
# “Also recorded” adds a separate entry of the source.
# Tests used:
# [1] = test system: PGE2 and PGD2 levels in muscle tissue; assay: LC-MS/MS of prostaglandins in muscle tissue lysates; format: in vivo, mouse; conditions: aged mice, daily i.p., 1 month
# Experimental: All prostaglandin standards-PGF2a; PGE2; PGD2; 15-keto PGE2; 13,14-dihydro 15-keto PGE2; PGE2-D4; and PGF2α-D9—were purchased from Cayman Chemical. For the PGE2-D4 internal standard, positions 3 and 4 were labeled with a total of four deuterium atoms. For PGF2α-D9, positions 17, 18, 19 and 20 were labeled with a total of nine deuterium atoms.
# Analyte stock solutions (5 mg/mL) were prepared in DMSO. These stock solutions were serially diluted with acetonitrile/water (1:1 v/v) to obtain a series of standard working solutions, which were used to generate the calibration curve. […]
# Solid tissues were harvested, weighed, and snap-frozen with liquid nitrogen. […] The dry residue was reconstituted in 100 μL acetonitrile/10 mM ammonium acetate (2:8 v/v) and analyzed by LC-MS/MS.
# Since many prostaglandins are positional isomers with identical masses and have similar fragmentation patterns, chromatographic separation is critical. Two SRM transitions-one quantifier and one qualifier-were carefully selected for each analyte. […]
# Quantitative analysis was done using LabSolutions LCMS (Shimadzu). An internal standard method was used for quantification: PGE2-D4 was used as an internal standard for quantification of PGE2, 15-keto PGE2, and 13, 14-dihydro 15-keto PGE2. […]
# 15-PGDH = biological target: T1, 15-PGDH (Mus musculus, UniProt Q8VCC1); assay: 15-PGDH kinetic assay (PicoProbe kit) in muscle lysates of treated mice; format: in vivo; conditions: aged mice, daily i.p., 1 month
# T1 construct: 15-PGDH specific enzymatic activity assayed in muscle tissues of vehicle and SW treated aged muscles; from tissue; host or cells: skeletal muscle lysates of aged C57BL/6 mice
# T1 sequence (Q8VCC1 whole entry): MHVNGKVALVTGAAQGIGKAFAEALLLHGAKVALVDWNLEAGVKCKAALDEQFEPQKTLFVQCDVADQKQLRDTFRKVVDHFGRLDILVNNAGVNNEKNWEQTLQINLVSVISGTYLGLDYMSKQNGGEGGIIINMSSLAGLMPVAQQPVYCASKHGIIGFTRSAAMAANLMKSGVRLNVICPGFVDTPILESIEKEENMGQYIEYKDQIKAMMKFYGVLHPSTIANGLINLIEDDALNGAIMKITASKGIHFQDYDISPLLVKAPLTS
# Experimental: 15-PGDH activity was analyzed in tissue lysates using the BioVision PicoProbe 15-PGDH Activity Assay Kit (Cat # K562) according to the protocol of the manufacturer. Briefly, tissues were isolated and snap frozen in liquid nitrogen.
compound,measurement,setting,value
"CCCC[S+]([O-])c1sc2nc(-c3cccs3)cc(-c3ccccc3)c2c1N (stereo not drawn) [SW033291, 2-(butylsulfinyl)-4-phenyl-6-(thiophen-2-yl)thieno[2,3-b]pyridin-3-amine]",PGD2 levels in muscle,[1],increase
same,PGE2 levels in muscle,[1]; listed as SW,elevated; also recorded: increase
same,15-PGDH specific activity in muscle,15-PGDH,significantly reduced
